Literature values as cited in patent US8067542B1 (priority 2003, dated 2011).

Tested on: Verticillium dahliae
Settings: AlfAFP expressed in potato (Gao et al, 2000); cited from earlier work

Alf - wt: native alfalfa antifungal protein (plant defensin from Medicago sativa seeds), SEQ ID NO:2 (RTCENLADKYRGPCFSGCDTHCTTKENAVSGRCRDDFRCWCTKRC; listed as Medicago sativa)
resistance to early dying disease in potato: confer resistance to early dying disease
